ChEMBL document CHEMBL3808282, “Gram Scale Syntheses of (-)-Incarvillateine and Its Analogs. Discovery of Potent Analgesics for Neuropathic Pain” (2016)
The source made the active and inactive calls. The calls are words filed in the database; no cut-off is given here.

How the values were obtained:
Mus musculus [1] = assay: Antinociceptive effect in Kunming mouse assessed as inhibition of acetic acid-induced writhing response at 20 mg/kg, sc administered 30 mins prior to acetic acid challenge measured 5 mins post injection for 15 mins; type: functional
Mus musculus [2] = assay: Antinociceptive effect in Kunming mouse assessed as inhibition of acetic acid-induced writhing response at 20 mg/kg, ip administered 30 mins prior to acetic acid challenge measured 5 mins post injection for 15 mins; type: functional
Mus musculus [3] = assay: Antinociceptive activity in ICR mouse assessed as reduction in licking and biting time during second phase at 10 mg/kg, ip administered 10 mins prior to formalin challenge measured for 10 to 30 mins (reference value: 178 +/- 19 s); type: functional
Mus musculus [4] = assay: Antinociceptive effect in C57BL/6 mouse assessed as inhibition of spared nerve injury-induced neuropathic pain response at 10 to 40 mg/kg, ip measured after 5 to 7 days of recovery by Von Frey filament assay; type: functional, organism-based
Mus musculus [5] = assay: Antinociceptive activity in ICR mouse assessed as reduction in licking and biting time during second phase at 10 mg/kg, ip administered 10 mins prior to formalin challenge measured for 10 to 30 mins (reference value: 159 +/- 15 s); type: functional
Mus musculus [6] = assay: Antinociceptive effect in Kunming mouse assessed as inhibition of acetic acid-induced writhing response at 100 mg/kg, sc administered 30 mins prior to acetic acid challenge measured 5 mins post injection for 15 mins; type: functional
Mus musculus [7] = assay: Antinociceptive effect in Kunming mouse assessed as inhibition of acetic acid-induced writhing response at 100 mg/kg, ip administered 30 mins prior to acetic acid challenge measured 5 mins post injection for 15 mins; type: functional
Mus musculus [8] = assay: Antinociceptive activity in ICR mouse assessed as reduction in licking and biting time during first phase at 10 mg/kg, ip administered 10 mins prior to formalin challenge measured for 10 mins (reference value: 156 +/- 8 s); type: functional
Mus musculus [9] = assay: Antinociceptive activity in ICR mouse assessed as reduction in licking and biting time during first phase at 20 mg/kg, ip administered 10 mins prior to formalin challenge measured for 10 mins (reference value: 156 +/- 8 s); type: functional
Mus musculus [10] = assay: Antinociceptive activity in ICR mouse assessed as reduction in licking and biting time during second phase at 10 mg/kg, ip administered 10 mins prior to formalin challenge measured for 10 to 30 mins (reference value: 159 +/- 25 s); type: functional
Mus musculus [11] = assay: Antinociceptive activity in ICR mouse assessed as reduction in licking and biting time during second phase at 20 mg/kg, ip administered 10 mins prior to formalin challenge measured for 10 to 30 mins (reference value: 159 +/- 25 s); type: functional
Mus musculus [12] = assay: Antinociceptive activity in ip dosed ICR mouse assessed as reduction in licking and biting time during first phase administered 10 mins prior to formalin challenge measured for 10 mins relative to vehicle control; type: functional, organism-based
Mus musculus [13] = assay: Antinociceptive activity in ip dosed ICR mouse assessed as reduction in licking and biting time during second phase administered 10 mins prior to formalin challenge measured for 10 to 30 mins relative to vehicle control; type: functional, organism-based
Mus musculus [14] = assay: Antinociceptive effect in C57BL/6 mouse assessed as inhibition of spared nerve injury-induced neuropathic pain response at 10 to 20 mg/kg, ip measured after 5 to 7 days of recovery by Von Frey filament assay; type: functional, organism-based
Mus musculus [15] = assay: Antinociceptive effect in C57BL/6 mouse assessed as inhibition of spared nerve injury-induced neuropathic pain response at 100 mg/kg, ip measured after 5 to 7 days of recovery by Von Frey filament assay; type: functional, organism-based

SMILES: C=C1CN(C)C[C@H]2[C@H](C)[C@H](OC(=O)[C@H]3[C@H](c4ccc(O)c(OC)c4)[C@H](C(=O)O[C@@H]4C[C@H]5C(=C)CN(C)C[C@H]5[C@@H]4C)[C@H]3c3ccc(O)c(OC)c3)C[C@@H]12
- inhibition in vivo at 20 mg/kg (Mus musculus [1]): 77.8%
- inhibition in vivo at 20 mg/kg (Mus musculus [2]): 89.4%
- Time (Mus musculus [3]): 87 s
- inhibition (Mus musculus [4]): Active

SMILES: C=CCN1C[C@H]2[C@H](C)[C@H](OC(=O)[C@H]3[C@H](c4ccc(O)c(OC)c4)[C@H](C(=O)O[C@@H]4C[C@@H]5[C@@H](CN(CC=C)C[C@@H]5C)[C@@H]4C)[C@H]3c3ccc(O)c(OC)c3)C[C@H]2[C@@H](C)C1
- inhibition in vivo at 20 mg/kg (Mus musculus [1]): 70.6%

SMILES: COc1cc([C@H]2[C@H](C(=O)OC3CCN(C)CC3)[C@H](c3ccc(O)c(OC)c3)[C@H]2C(=O)OC2CCN(C)CC2)ccc1O
- inhibition in vivo at 20 mg/kg (Mus musculus [1]): 41.2%

SMILES: COc1cc([C@H]2[C@H](C(=O)OCCC3CCN(C)CC3)[C@H](c3ccc(O)c(OC)c3)[C@H]2C(=O)OCCC2CCN(C)CC2)ccc1O
- inhibition in vivo at 20 mg/kg (Mus musculus [1]): 22.4%

SMILES: CCCN1C[C@H]2[C@H](C)[C@H](OC(=O)[C@H]3[C@H](c4ccc(O)c(OC)c4)[C@H](C(=O)O[C@@H]4C[C@@H]5[C@@H](CN(CCC)C[C@@H]5C)[C@@H]4C)[C@H]3c3ccc(O)c(OC)c3)C[C@H]2[C@@H](C)C1
- inhibition in vivo at 20 mg/kg (Mus musculus [1]): 48.2%

SMILES: COc1cc([C@H]2[C@H](C(=O)OCC3CCN(C)CC3)[C@H](c3ccc(O)c(OC)c3)[C@H]2C(=O)OCC2CCN(C)CC2)ccc1O
- inhibition in vivo at 20 mg/kg (Mus musculus [1]): 75.7%
- Time (Mus musculus [5]): 95 s
- inhibition (Mus musculus [4]): Active

SMILES: CC(=O)Oc1ccccc1C(=O)O [ASPIRIN DL-LYSINE]
- inhibition in vivo at 100 mg/kg (Mus musculus [6]): 81.9%
- inhibition in vivo at 100 mg/kg (Mus musculus [7]): 85.4%

SMILES: CCCCN1C[C@H]2[C@H](C)[C@H](OC(=O)[C@H]3[C@H](c4ccc(O)c(OC)c4)[C@H](C(=O)O[C@@H]4C[C@@H]5[C@@H](CN(CCCC)C[C@@H]5C)[C@@H]4C)[C@H]3c3ccc(O)c(OC)c3)C[C@H]2[C@@H](C)C1
- inhibition in vivo at 20 mg/kg (Mus musculus [1]): 13.1%

SMILES: COc1cc([C@H]2[C@H](C(=O)O[C@@H]3C[C@@H]4[C@@H](CN(CC5CC5)C[C@@H]4C)[C@@H]3C)[C@H](c3ccc(O)c(OC)c3)[C@H]2C(=O)O[C@@H]2C[C@@H]3[C@@H](CN(CC4CC4)C[C@@H]3C)[C@@H]2C)ccc1O
- inhibition in vivo at 20 mg/kg (Mus musculus [2]): 88.1%

SMILES: COc1cc([C@H]2[C@H](C(=O)O[C@@H]3C[C@@H]4[C@@H](CN(C)C[C@@H]4C)[C@@H]3C)[C@H](c3ccc(O)c(OC)c3)[C@H]2C(=O)O[C@@H]2C[C@@H]3[C@@H](CN(C)C[C@@H]3C)[C@@H]2C)ccc1O [INCARVILLATEINE]
- inhibition in vivo at 20 mg/kg (Mus musculus [1]): 69.2%
- inhibition in vivo at 20 mg/kg (Mus musculus [2]): 78.5%
- Time (Mus musculus [8]): 101 s
- Time (Mus musculus [9]): 51 s
- Time (Mus musculus [10]): 67 s
- Time (Mus musculus [11]): 1 s
- Activity (Mus musculus [12]): Dose-dependent effect
- Activity (Mus musculus [13]): Dose-dependent effect
- inhibition (Mus musculus [14]): Active

SMILES: NCC1(CC(=O)O)CCCCC1
- inhibition (Mus musculus [15]): Active

SMILES: COc1cc([C@H]2[C@H](C(=O)O[C@@H]3C[C@@H]4[C@@H](CN(C)C[C@H]4C)[C@@H]3C)[C@H](c3ccc(O)c(OC)c3)[C@H]2C(=O)O[C@@H]2C[C@@H]3[C@@H](CN(C)C[C@H]3C)[C@@H]2C)ccc1O
- inhibition in vivo at 20 mg/kg (Mus musculus [1]): 65.1%
